Laboratory results as given in patent publication US20220402882A1, “HERBICIDAL COMPOUNDS” (SYNGENTA CROP PROTECTION AG, priority 2019, published 2022).

Legend:
Type in all cases: in vivo
Details in all cases: evaluated after 13 days
[1] = system: Ipomoea hederacea (IPOHE); test: Pre-emergence glasshouse herbicide test
Protocol: (§1) Seeds of a variety of test species are sown in standard soil in pots (Lolium perenne (LOLPE), Amaranthus retoflexus (AMARE), Abutilon theophrasti (ABUTH), Setaria faberi (SETFA), Echinochloa crus-galli (ECHCG), Ipomoea hederacea (IPOHE)). After cultivation for one day (pre-emergence) or after 8 days cultivation (post-emergence) under controlled conditions in a glasshouse (at 24/16° C., day/night; 14 hours light; 65% humidity), the plants are sprayed with an aqueous spray solution derived from the formulation of the technical active ingredient in acetone/water (50:50) solution containing 0.5% Tween™ 20 (polyoxyethelyene sorbitan monolaurate, CAS RN 9005-64-5). Compounds are applied at 125 g/h unless otherwise indicated. The test plants are then grown in a glasshouse under controlled conditions in a glasshouse (at 24/16° C., day/night; 14 hours light; 65% humidity) and watered twice daily. After 13 days for pre- and post-emergence, the test is evaluated for the percentage damage caused to the plant. The biological activities are shown in the following table on a five-point scale (5=80-100%; 4=60-79%; 3=40-59%; 2=20-39%; 1=0-19%).

[2] = system: Amaranthus retoflexus (AMARE); test: Pre-emergence glasshouse herbicide test
Protocol: as §1

[3] = system: Echinochloa crus-galli (ECHCG); test: Pre-emergence glasshouse herbicide test
Protocol: as §1

[4] = system: Abutilon theophrasti (ABUTH); test: Pre-emergence glasshouse herbicide test
Protocol: as §1

Setaria faberi (SETFA) [5] = test: Pre-emergence glasshouse herbicide test
Protocol: as §1

[6] = system: Ipomoea hederacea (IPOHE); test: Post-emergence glasshouse herbicide test
Protocol: as §1

[7] = system: Amaranthus retoflexus (AMARE); test: Post-emergence glasshouse herbicide test
Protocol: as §1

[8] = system: Echinochloa crus-galli (ECHCG); test: Post-emergence glasshouse herbicide test
Protocol: as §1

[9] = system: Abutilon theophrasti (ABUTH); test: Post-emergence glasshouse herbicide test
Protocol: as §1

Setaria faberi (SETFA) [10] = test: Post-emergence glasshouse herbicide test
Protocol: as §1

Row | SMILES | percentage damage caused to the plant, IPOHE ([1]; 125 g/h) | percentage damage caused to the plant, AMARE ([2]; 125 g/h) | percentage damage caused to the plant, ECHCG ([3]; 125 g/h) | percentage damage caused to the plant, ABUTH ([4]; 125 g/h) | percentage damage caused to the plant, SETFA (Setaria faberi (SETFA) [5]; 125 g/h) | percentage damage caused to the plant, IPOHE ([6]; 125 g/h) | percentage damage caused to the plant, AMARE ([7]; 125 g/h) | percentage damage caused to the plant, ECHCG ([8]; 125 g/h) | percentage damage caused to the plant, ABUTH ([9]; 125 g/h) | percentage damage caused to the plant, SETFA (Setaria faberi (SETFA) [10]; 125 g/h) | percentage damage caused to the plant, IPOHE ([1]; *Applied at 250 g/ha) | percentage damage caused to the plant, AMARE ([2]; *Applied at 250 g/ha) | percentage damage caused to the plant, ECHCG ([3]; *Applied at 250 g/ha) | percentage damage caused to the plant, ABUTH ([4]; *Applied at 250 g/ha) | percentage damage caused to the plant, SETFA (Setaria faberi (SETFA) [5]; *Applied at 250 g/ha) | percentage damage caused to the plant, IPOHE ([6]; *Applied at 250 g/ha) | percentage damage caused to the plant, AMARE ([7]; *Applied at 250 g/ha) | percentage damage caused to the plant, ECHCG ([8]; *Applied at 250 g/ha) | percentage damage caused to the plant, ABUTH ([9]; *Applied at 250 g/ha) | percentage damage caused to the plant, SETFA (Setaria faberi (SETFA) [10]; *Applied at 250 g/ha)
1 | CCCS(=O)(=O)c1c(OC(F)F)ccc(C(=O)Nc2nnnn2C)c1Cl [Compound 1.050] | 3 (3=40-59%) | 5 (5=80-100%) | 5 (5=80-100%) | 5 (5=80-100%) | 5 (5=80-100%) | 4 (4=60-79%) | 5 (5=80-100%) | 5 (5=80-100%) | 5 (5=80-100%) | 5 (5=80-100%) | – | – | – | – | – | – | – | – | – | –
2 | CCSc1c(OC(F)(F)F)ccc(C(=O)Nc2nnnn2C)c1C [Compound 1.030] | 3 (3=40-59%) | 5 (5=80-100%) | 5 (5=80-100%) | 5 (5=80-100%) | 5 (5=80-100%) | 5 (5=80-100%) | 5 (5=80-100%) | 5 (5=80-100%) | 5 (5=80-100%) | 5 (5=80-100%) | – | – | – | – | – | – | – | – | – | –
3 | CSc1c(OC(F)(F)F)ccc(C(=O)Nc2nnnn2C)c1Cl [Compound 1.005, 2-chloro-3-methylsulfanyl-N-(1-methyltetrazol-5-yl)-4-(trifluoromethoxy)benzamide] | – | – | – | – | – | – | – | – | – | – | 1 (1=0-19%) | 4 (4=60-79%) | 1 (1=0-19%) | 2 (2=20-39%) | 1 (1=0-19%) | 5 (5=80-100%) | 5 (5=80-100%) | 5 (5=80-100%) | 5 (5=80-100%) | 5 (5=80-100%)
4 | CCn1nnnc1NC(=O)c1ccc(OC(F)F)c(S(=O)(=O)CC)c1C [Compound 1.048] | 5 (5=80-100%) | 5 (5=80-100%) | 5 (5=80-100%) | 5 (5=80-100%) | 5 (5=80-100%) | 5 (5=80-100%) | 5 (5=80-100%) | 5 (5=80-100%) | 5 (5=80-100%) | 5 (5=80-100%) | – | – | – | – | – | – | – | – | – | –
5 | Cc1nnc(NC(=O)c2ccc(OC(F)(F)F)c(S(C)(=O)=O)c2Cl)o1 [Compound 2.005] | – | – | – | – | – | – | – | – | – | – | 1 (1=0-19%) | 5 (5=80-100%) | 5 (5=80-100%) | 5 (5=80-100%) | 5 (5=80-100%) | 5 (5=80-100%) | 5 (5=80-100%) | 5 (5=80-100%) | 5 (5=80-100%) | 5 (5=80-100%)
6 | CCS(=O)(=O)c1c(OCC(F)(F)F)ccc(C(=O)Nc2nnnn2C)c1C [Compound 1.040] | 5 (5=80-100%) | 5 (5=80-100%) | 5 (5=80-100%) | 5 (5=80-100%) | 5 (5=80-100%) | 5 (5=80-100%) | 5 (5=80-100%) | 5 (5=80-100%) | 5 (5=80-100%) | 5 (5=80-100%) | – | – | – | – | – | – | – | – | – | –
